# Assay results taken from patent US4261989A, “Geldanamycin derivatives and antitumor drug” (Kaken Chemical Co. Ltd., priority 1979, dated 1981).
# Test system: not listed separately
# Test: Acute toxicity, LD50 to mouse by intraperitoneal injection (Table 3)
# Conditions: in vivo, ip
# Protocol: LD50 of each sample to mouse was measured by intraperitoneal injection of each sample.
row,Molecule,LD50
1,"COC1=C2CC(C)CC(OC)C(O)C(C)C3OC3(C)C(OC(N)=O)C(OC)C=CC=C(C)C(=O)NC(=CC1=O)C2=O (stereo not shown) [Example 45, 8,9-epoxy-Geldanamycin]",240 mg/kg
2,CCNC1=C2CC(C)CC(OC)C(O)C(C)/C=C(\C)C(OC(N)=O)C(OC)/C=C\C=C(/C)C(=O)NC(=CC1=O)C2=O (stereo not shown) [Example 3],120 mg/kg

# Test system: cancer cell W-2K-11
# Test: Growth inhibition of cancer cell W-2K-11 (percent inhibition of cell multiplication, Table 2)
# Format: cell-based, mouse
# Conditions: Mus musculus, 48 h, read-out: Percent inhibition (%)
# Protocol: Cancer cell W-2K-11 was obtained by transforming fibroblast C3H-2K clone derived from kidney of mouse by cancerogenic virus. The cancer cell W-2K-11 was cultured by the following method.
# (1) Preparation of culture medium
# 9.4 Gram of Eagle's MEM culture media (manufactured by Nissui Seiyaku K. K.) was dissolved in 900 ml. of distilled water and the solution was sterilized under high pressure at 120° C. for 15 minutes and cooled. 100 Ml. of calf serum and 3-5 ml. of 10% aqueous solution of sodium bicarbonate were added to the solution to adjust pH to 7.1-7.2. 10 Ml. of an aqueous solution of L-glutamine (2.92 g./100 ml.) filtered by a millipore filter was added just before the use of the solution as culture medium.
# (2) Preparation of transplanted cell solution
# The cancer cell W-2K-11 stored in a freezer at -80° C. was melted at room temperature and treated by a centrifugal separator at 670 g. for 5 minutes. The precipitated cell was dispersed in 50 ml. of the culture medium (1). The suspension was charged into Roux flask and cultured at 37° C. The multiplication of the cells was initiated and accomplished after 3 to 4 days. The cultured mixture was decanted and 10 ml. of 0.2% trypsin solution was added and the mixture was kept at room temperature for 2 to 3 minutes and the trypsin mixture was decanted and then, 50 ml. of the culture medium (1) was added to prepare a suspension of cells.
# (3) Incubation of cells and addition of sample
# 1.8 Ml. of the suspension of cells (2) was charged into each Petri dish and incubated in a carbon dioxide gas incubator (5% of CO2; 95% of air) at 37° C. Twenty four hours after the initiation of the incubation, 0.2 ml. of each ethanol solution of each sample was added, and the incubation was continued. Forty eight hours after the addition of the sample, numbers of survival cells were counted under a microscopic observation and each percent inhibition of cell multiplication was calculated. [formula]
Molecule,inhibition at 5 µg/mL,inhibition at 10 µg/mL,inhibition at 1 µg/mL
COC1C=CC=C(C)C(=O)NC2=CC(=O)C(NCCc3ccccn3)=C(CC(C)CC(OC)C(O)C(C)C=C(C)C1OC(N)=O)C2=O (stereo not shown) [Example 31],93%,,
"COC1=C2CC(C)CC(OC)C(O)C(C)C=C(C)C(OC(N)=O)C(OC)C=CC=C(C)C(=O)NC(=C(I)C1=O)C2=O (stereo not shown) [Example 38, 19-iodo-Geldanamycin]",95%,,
COC1C=CC=C(C)C(=O)NC2=CC(=O)C(NCc3ccncc3)=C(CC(C)CC(OC)C(O)C(C)C=C(C)C1OC(N)=O)C2=O (stereo not shown) [Example 30],95%,,
CCCCCCCCCCNC1=C2CC(C)CC(OC)C(O)C(C)/C=C(\C)C(OC(N)=O)C(OC)/C=C\C=C(/C)C(=O)NC(=CC1=O)C2=O (stereo not shown) [Example 10],,48%,
"COC1/C=C\C=C(/C)C(=O)NC2=CC(=O)C(N3CC3)=C(CC(C)CC(OC)C(O)C(C)/C=C(\C)C1OC(N)=O)C2=O (stereo not shown) [Example 2, 17-ethyleneimino-Geldenamycin]",,,97%
"CNC(=O)OC1C(C)=CC(C)C(O)C(OC)CC(C)CC2=C(OC)C(=O)C=C(N=C(OC)C(C)=CC=CC1OC)C2=O (stereo not shown) [Example 44, 1-O-methyl-7-OCONH-methyl-Geldanamycin]",,80%,94%
COC1/C=C\C=C(/C)C(=O)NC2=CC(=O)C(NCCCl)=C(CC(C)CC(OC)C(O)C(C)/C=C(\C)C1OC(N)=O)C2=O (stereo not shown) [Example 20],,,98%
CCCCCNC1=C2CC(C)CC(OC)C(O)C(C)/C=C(\C)C(OC(N)=O)C(OC)/C=C\C=C(/C)C(=O)NC(=CC1=O)C2=O (stereo not shown) [Example 6],,,90%
COC1/C=C\C=C(/C)C(=O)NC2=CC(=O)C(NCC(C)C)=C(CC(C)CC(OC)C(O)C(C)/C=C(\C)C1OC(N)=O)C2=O (stereo not shown) [Example 12],,,90%

# Same assay, conditions: Mus musculus; concentration 0.5 μg/ml; 48 hours after addition of sample; W-2K-11 cells
row,Molecule,inhibition at 0.5 µg/mL
1,COCCNC1=C2CC(C)CC(OC)C(O)C(C)C=C(C)C(OC(N)=O)C(OC)C=CC=C(C)C(=O)NC(=CC1=O)C2=O (stereo not shown) [Example 33],95%

# Same assay, conditions: Mus musculus; concentration 1 μg/ml; 48 hours after addition of sample; W-2K-11 cells; read-out: Percent inhibition (%)
row,Molecule,inhibition at 1 µg/mL
1,COC1C=CC=C(C)C(=O)NC2=CC(=O)C(NCc3ccccc3)=C(CC(C)CC(OC)C(O)C(C)C=C(C)C1OC(N)=O)C2=O (stereo not shown) [Example 23],88%
2,"COC1=C2CC(C)CC(OC)C(O)C(C)C3OC3(C)C(OC(N)=O)C(OC)C=CC=C(C)C(=O)NC(=CC1=O)C2=O (stereo not shown) [Example 45, 8,9-epoxy-Geldanamycin]",95%
3,COC1/C=C\C=C(/C)C(=O)NC2=CC(=O)C(NCCO)=C(CC(C)CC(OC)C(O)C(C)/C=C(\C)C1OC(N)=O)C2=O (stereo not shown) [Example 18],98%
4,COC1C=CC=C(C)C(=O)NC2=CC(=O)C(NCCc3ccccc3)=C(CC(C)CC(OC)C(O)C(C)C=C(C)C1OC(N)=O)C2=O (stereo not shown) [Example 24],82%
5,COC1/C=C\C=C(/C)C(=O)NC2=CC(=O)C(NC3CCCCC3)=C(CC(C)CC(OC)C(O)C(C)/C=C(\C)C1OC(N)=O)C2=O (stereo not shown) [Example 15],98%
6,"CNC(=O)OC1C(C)=CC(C)C(O)C(OC)CC(C)CC2=C(OC)C(=O)C=C(C2=O)N(C)C(=O)C(C)=CC=CC1OC (stereo not shown) [Example 42, 21-N-methyl-7-OCONH-methyl-Geldanamycin]",82%
7,"COC1=NC2=CC(=O)C(OC)=C(CC(C)CC(OC)C(O)C(C)C=C(C)C(OC(N)=O)C(OC)C=CC=C1C)C2=O (stereo not shown) [Example 40, 1-O-methyl-Geldanamycin]",80%
8,CCCCCCNC1=C2CC(C)CC(OC)C(O)C(C)/C=C(\C)C(OC(N)=O)C(OC)/C=C\C=C(/C)C(=O)NC(=CC1=O)C2=O (stereo not shown) [Example 7],90%
9,CCNC1=C2CC(C)CC(OC)C(O)C(C)/C=C(\C)C(OC(N)=O)C(OC)/C=C\C=C(/C)C(=O)NC(=CC1=O)C2=O (stereo not shown) [Example 3],90%
10,C=CCNC1=C2CC(C)CC(OC)C(O)C(C)/C=C(\C)C(OC(N)=O)C(OC)/C=C\C=C(/C)C(=O)NC(=CC1=O)C2=O (stereo not shown) [Example 22],93%
11,CCCCCCCNC1=C2CC(C)CC(OC)C(O)C(C)/C=C(\C)C(OC(N)=O)C(OC)/C=C\C=C(/C)C(=O)NC(=CC1=O)C2=O (stereo not shown) [Example 8],96%
12,"CNC(=O)OC1C(C)=CC(C)C(O)C(OC)CC(C)CC2=C(OC)C(=O)C=C(NC(=O)C(C)=CC=CC1OC)C2=O (stereo not shown) [Example 43, 7-OCONH-methyl Geldanamycin]",60%
13,COC1/C=C\C=C(/C)C(=O)NC2=CC(=O)C(NC3CC3)=C(CC(C)CC(OC)C(O)C(C)/C=C(\C)C1OC(N)=O)C2=O (stereo not shown) [Example 13],94%
14,COC1/C=C\C=C(/C)C(=O)NC2=CC(=O)C(NC3CCCC3)=C(CC(C)CC(OC)C(O)C(C)/C=C(\C)C1OC(N)=O)C2=O (stereo not shown) [Example 14],98%
15,"CCCNC1=C2CC(C)CC(OC)C(O)C(C)/C=C(\C)C(OC(N)=O)C(OC)/C=C\C=C(/C)C(=O)NC(=CC1=O)C2=O (stereo not shown) [Example 1, 17-n-propylamino-Geldanamycin]",92%
16,CCCCNC1=C2CC(C)CC(OC)C(O)C(C)/C=C(\C)C(OC(N)=O)C(OC)/C=C\C=C(/C)C(=O)NC(=CC1=O)C2=O (stereo not shown) [Example 5],85%

# Same assay, conditions: Mus musculus; concentration 5 μg/ml; 48 hours after addition of sample; W-2K-11 cells; read-out: Percent inhibition (%)
row,Molecule,inhibition at 5 µg/mL
1,COC1C=CC=C(C)C(=O)NC2=CC(=O)C(NCc3cccnc3)=C(CC(C)CC(OC)C(O)C(C)C=C(C)C1OC(N)=O)C2=O (stereo not shown) [Example 29],92%
2,COC1C=CC=C(C)C(=O)NC2=CC(=O)C(NCCN3CCCC3)=C(CC(C)CC(OC)C(O)C(C)C=C(C)C1OC(N)=O)C2=O (stereo not shown) [Example 32],84%
3,CNCCNC1=C2CC(C)CC(OC)C(O)C(C)C=C(C)C(OC(N)=O)C(OC)C=CC=C(C)C(=O)NC(=CC1=O)C2=O (stereo not shown) [Example 34],67%
4,COC1C=CC=C(C)C(=O)NC2=CC(=O)C(NCCN3CCOCC3)=C(CC(C)CC(OC)C(O)C(C)C=C(C)C1OC(N)=O)C2=O (stereo not shown) [Example 26],93%
5,"COC1=C2CC(C)CC(OC)C(O)C(C)C=C(C)C(OC(N)=O)C(OC)C=CC=C(C)C(=O)NC(=C(Br)C1=O)C2=O (stereo not shown) [Example 37, 19-bromo-Geldanamycin]",84%
6,COC1/C=C\C=C(/C)C(=O)NC2=CC(=O)C(NCCN)=C(CC(C)CC(OC)C(O)C(C)/C=C(\C)C1OC(N)=O)C2=O (stereo not shown) [Example 4],57%
7,COC1C=CC=C(C)C(=O)NC2=CC(=O)C(NCc3ccccn3)=C(CC(C)CC(OC)C(O)C(C)C=C(C)C1OC(N)=O)C2=O (stereo not shown) [Example 28],90%
8,"COC1=C2CC(C)CC(OC)C(O)C(C)C=C(C)C(OC(N)=O)C(OC)C=CC=C(C)C(=O)NC(=C(Cl)C1=O)C2=O (stereo not shown) [Example 39, 19-chloro-Geldanamycin]",91%

# Same assay, conditions: Mus musculus; concentration 10 μg/ml; 48 hours after addition of sample; W-2K-11 cells; read-out: Percent inhibition (%)
row,Molecule,inhibition at 10 µg/mL
1,COC1/C=C\C=C(/C)C(=O)NC2=CC(=O)C(NCCCCN)=C(CC(C)CC(OC)C(O)C(C)/C=C(\C)C1OC(N)=O)C2=O (stereo not shown) [Example 21],53%
2,"COC1=C2CC(C)CC(OC)C(O)C(C)C3OC3(C)C(OC(N)=O)C(OC)C=CC=C(C)C(=O)NC(=CC1=O)C2=O (stereo not shown) [Example 45, 8,9-epoxy-Geldanamycin]",100%
3,"CNC(=O)OC1C(C)=CC(C)C(O)C(OC)CC(C)CC2=C(OC)C(=O)C=C(C2=O)N(C)C(=O)C(C)=CC=CC1OC (stereo not shown) [Example 42, 21-N-methyl-7-OCONH-methyl-Geldanamycin]",94%
4,"COC1=NC2=CC(=O)C(OC)=C(CC(C)CC(OC)C(O)C(C)C=C(C)C(OC(N)=O)C(OC)C=CC=C1C)C2=O (stereo not shown) [Example 40, 1-O-methyl-Geldanamycin]",95%
5,COC1/C=C\C=C(/C)C(=O)NC2=CC(=O)C(NC3CCCCCC3)=C(CC(C)CC(OC)C(O)C(C)/C=C(\C)C1OC(N)=O)C2=O (stereo not shown) [Example 16],98%
6,COC1/C=C\C=C(/C)C(=O)NC2=CC(=O)C(NCCOCCO)=C(CC(C)CC(OC)C(O)C(C)/C=C(\C)C1OC(N)=O)C2=O (stereo not shown) [Example 19],88%
7,"CNC(=O)OC1C(C)=CC(C)C(O)C(OC)CC(C)CC2=C(OC)C(=O)C=C(NC(=O)C(C)=CC=CC1OC)C2=O (stereo not shown) [Example 43, 7-OCONH-methyl Geldanamycin]",96%
8,CCCCCCCCNC1=C2CC(C)CC(OC)C(O)C(C)/C=C(\C)C(OC(N)=O)C(OC)/C=C\C=C(/C)C(=O)NC(=CC1=O)C2=O (stereo not shown) [Example 9],67%
9,CCCCCCCCCCCCNC1=C2CC(C)CC(OC)C(O)C(C)/C=C(\C)C(OC(N)=O)C(OC)/C=C\C=C(/C)C(=O)NC(=CC1=O)C2=O (stereo not shown) [Example 11],79%
10,COC1C=CC=C(C)C(=O)NC2=CC(=O)C(N3CCCC3)=C(CC(C)CC(OC)C(O)C(C)C=C(C)C1OC(N)=O)C2=O (stereo not shown) [Example 25],97%
11,COC1/C=C\C=C(/C)C(=O)NC2=CC(=O)C(NC3CCCC3)=C(CC(C)CC(OC)C(O)C(C)/C=C(\C)C1OC(N)=O)C2=O (stereo not shown) [Example 14],97%

# Same assay, conditions: concentration 1 μg/ml; 48 hours after addition of sample; W-2K-11 cells
row,Molecule,Percent inhibition (%)
1,"17-demethoxy-17,19-bisdimethylamino-Geldenamycin [Example 35]",92%

# Same assay, conditions: concentration 5 μg/ml; 48 hours after addition of sample; W-2K-11 cells
row,Molecule,Percent inhibition (%)
1,CO[C@H]1/C=C\C=C(/C)C(=O)NC2=CC(=O)C(NCCN3CCCCC3)=C(C[C@@H](C)C[C@H](OC)[C@H](O)[C@@H](C)/C=C(\C)[C@@H]1OC(N)=O)C2=O [Example 27],57%

# Same assay, conditions: concentration 10 μg/ml; 48 hours after addition of sample; W-2K-11 cells
row,Molecule,Percent inhibition (%)
1,COC1C=CC=C(C)C(=O)NC2=CC(=O)C(NCC34CC5CC(CC(C5)C3)C4)=C(CC(C)CC(OC)C(O)C(C)C=C(C)C1OC(N)=O)C2=O (stereo not shown) [Example 17],98%
2,"17-demethoxy-17,19-bisdimethylamino-Geldenamycin [Example 35]",97%
